Earlier results, collected in US10813968B2, “Method of treating a human suffering from post exercise muscle soreness” (Provexis Natural Products Limited, priority 2012, dated 2020).

Settings: 3 hours after supplementation supplying 200 μg folic acid

Compound: Nc1nc2ncc(CNc3ccc(C(=O)N[C@@H](CCC(=O)O)C(=O)O)cc3)nc2c(=O)[nH]1 [folic acid]
- typical plasma folate concentration: 5 ng/mL
